How the values were obtained:
[1] = after taken, cited from earlier work
[2] = test system: healthy male Kunming mice; assay: Impact on liver damage in mice: serum AST and ALT activity after gavage; type: in vivo; conditions: gavage 0.5 g/kg, 4 d at intervals of 24 h, mean ± spread, 10 mice per group
Procedure: 1. Materials: healthy male Kunming mice (weight: 20-22 g)
Divide 50 mice into 5 Groups: Control Group, Model Group, Embodiment Group 1, Embodiment Group 2 and Embodiment Group 3; 10 mice for each group. The mice are fed freely two days and fasted 16 h before the experiment. Experimental Treatment: the mice respectively of Control Group, Model Group, Embodiment Group 1, Embodiment Group 2 and Embodiment Group 3 are separately given normal saline, acetaminophen solution (0.5 g/kg), tablets (0.5 g/kg) made in Embodiment 1, oral solution (0.5 g/kg) made in Embodiment 2, and granules made in Embodiment 3 by gavage. The mice are treated continuously 4 d at intervals of 24 h. The mice of control group are given 1% sodium carboxymethylcellulose (0.15 g/kg) by gavage 1 h after last treatment and sacrificed by cervical dislocation after 24 h.
Preparation of Blood Serum: take blood from mouse carotid artery, stand the blood, then make it centrifuged at 3,000 r/min for 15 min to separate out the serum, and put the serum in refrigerator (−20° C.) for storage.
Measuring Indicator and Method: take the prepared serum on Sigma95308 automatic biochemistry analyzer to determine the activity of aspartate transaminase (AST/GOT) and alanine aminotransferase (ALT/GPT).
Impact of Embodiments on Liver Damage

Which results are given for `CC(=O)Nc1ccc(O)cc1` [Model Group, Acetaminophen]?
Share combined with glucuronide ([1]; liver metabolism): 60%; Share combined with sulfuric acid ([1]; liver metabolism): 30%; Share metabolized by liver cytochrome P450 oxidase system to NAPQI [1]: 4%-5; Share of acetaminophen metabolized by the liver [1]: 90%; ALT (alanine aminotransferase, ALT/GPT) activity in serum [2]: 87.8 ± 9.5 IU · L^−1; AST (aspartate transaminase, AST/GOT) activity in serum [2]: 245.6 ± 18.3 IU · L^−1
